Read-outs that look alike come from different tables or passages of the source. Each block holds one compound with its values, some of them ahead of it.
How the values were obtained:
c-RAF = c-RAF (Homo sapiens (Human), UniProt P04049); experiment: Kinase inhibition assay (KinaseProfiler, 33P-ATP); assay type: biochemical; details: for remaining activity at 10 µM: c-RAF(h), read-out: The percentage of the remaining active protein
Yes = Yes (Homo sapiens (Human), UniProt P07947); experiment: Kinase inhibition assay (KinaseProfiler, 33P-ATP); assay type: biochemical; details: for remaining activity at 10 µM: Yes(h), read-out: The percentage of the remaining active protein; for IC50: Yes, ATP at Km
Yes, sequence (P07947 whole entry): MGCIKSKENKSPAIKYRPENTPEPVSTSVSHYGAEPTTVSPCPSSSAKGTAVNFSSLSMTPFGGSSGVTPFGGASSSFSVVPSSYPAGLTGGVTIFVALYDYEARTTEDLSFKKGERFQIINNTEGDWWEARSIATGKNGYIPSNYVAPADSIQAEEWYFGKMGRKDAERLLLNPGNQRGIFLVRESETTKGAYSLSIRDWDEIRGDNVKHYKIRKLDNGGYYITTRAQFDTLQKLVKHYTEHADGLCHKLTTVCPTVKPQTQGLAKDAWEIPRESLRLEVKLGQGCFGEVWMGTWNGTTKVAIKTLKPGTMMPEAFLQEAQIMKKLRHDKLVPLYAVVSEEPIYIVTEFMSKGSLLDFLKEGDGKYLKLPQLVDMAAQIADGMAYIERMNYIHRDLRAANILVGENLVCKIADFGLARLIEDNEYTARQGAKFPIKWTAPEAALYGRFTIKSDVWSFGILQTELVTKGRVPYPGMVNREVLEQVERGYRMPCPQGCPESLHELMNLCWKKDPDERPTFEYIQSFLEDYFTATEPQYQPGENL

EphB4 = EphB4 (Homo sapiens (Human), UniProt P54760); experiment: Kinase inhibition assay (KinaseProfiler, 33P-ATP); assay type: biochemical
DDR1 = DDR1 (Homo sapiens (Human), UniProt Q08345); experiment: Kinase inhibition assay (KinaseProfiler, 33P-ATP); assay type: biochemical; details: for IC50: DDR1, ATP at Km
DDR1, sequence (Q08345 19-913): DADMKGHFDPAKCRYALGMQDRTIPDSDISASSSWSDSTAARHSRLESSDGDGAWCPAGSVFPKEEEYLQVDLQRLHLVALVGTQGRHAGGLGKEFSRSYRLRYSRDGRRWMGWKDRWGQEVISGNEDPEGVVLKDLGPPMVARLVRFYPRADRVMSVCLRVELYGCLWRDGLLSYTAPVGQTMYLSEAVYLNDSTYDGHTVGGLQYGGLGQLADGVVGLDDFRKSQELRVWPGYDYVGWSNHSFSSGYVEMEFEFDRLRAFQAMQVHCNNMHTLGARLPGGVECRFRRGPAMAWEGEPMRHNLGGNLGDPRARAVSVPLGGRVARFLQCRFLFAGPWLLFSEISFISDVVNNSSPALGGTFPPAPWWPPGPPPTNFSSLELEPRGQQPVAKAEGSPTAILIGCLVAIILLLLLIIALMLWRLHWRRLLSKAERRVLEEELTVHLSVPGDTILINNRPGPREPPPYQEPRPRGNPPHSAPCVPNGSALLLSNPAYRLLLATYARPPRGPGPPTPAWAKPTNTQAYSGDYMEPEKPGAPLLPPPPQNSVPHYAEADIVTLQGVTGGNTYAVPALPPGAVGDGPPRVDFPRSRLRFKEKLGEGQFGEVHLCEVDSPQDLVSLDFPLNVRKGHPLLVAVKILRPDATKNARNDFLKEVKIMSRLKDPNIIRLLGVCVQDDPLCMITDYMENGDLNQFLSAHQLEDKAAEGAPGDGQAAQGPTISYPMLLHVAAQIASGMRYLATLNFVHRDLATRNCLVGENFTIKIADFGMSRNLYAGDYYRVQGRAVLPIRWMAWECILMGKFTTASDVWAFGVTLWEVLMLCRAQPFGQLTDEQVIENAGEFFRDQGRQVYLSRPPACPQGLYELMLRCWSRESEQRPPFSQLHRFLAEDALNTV

DDR2 = DDR2 (Homo sapiens (Human), UniProt Q16832); experiment: Kinase inhibition assay (KinaseProfiler, 33P-ATP); assay type: biochemical; details: for IC50: DDR2, ATP at Km
DDR2, sequence (Q16832 22-855): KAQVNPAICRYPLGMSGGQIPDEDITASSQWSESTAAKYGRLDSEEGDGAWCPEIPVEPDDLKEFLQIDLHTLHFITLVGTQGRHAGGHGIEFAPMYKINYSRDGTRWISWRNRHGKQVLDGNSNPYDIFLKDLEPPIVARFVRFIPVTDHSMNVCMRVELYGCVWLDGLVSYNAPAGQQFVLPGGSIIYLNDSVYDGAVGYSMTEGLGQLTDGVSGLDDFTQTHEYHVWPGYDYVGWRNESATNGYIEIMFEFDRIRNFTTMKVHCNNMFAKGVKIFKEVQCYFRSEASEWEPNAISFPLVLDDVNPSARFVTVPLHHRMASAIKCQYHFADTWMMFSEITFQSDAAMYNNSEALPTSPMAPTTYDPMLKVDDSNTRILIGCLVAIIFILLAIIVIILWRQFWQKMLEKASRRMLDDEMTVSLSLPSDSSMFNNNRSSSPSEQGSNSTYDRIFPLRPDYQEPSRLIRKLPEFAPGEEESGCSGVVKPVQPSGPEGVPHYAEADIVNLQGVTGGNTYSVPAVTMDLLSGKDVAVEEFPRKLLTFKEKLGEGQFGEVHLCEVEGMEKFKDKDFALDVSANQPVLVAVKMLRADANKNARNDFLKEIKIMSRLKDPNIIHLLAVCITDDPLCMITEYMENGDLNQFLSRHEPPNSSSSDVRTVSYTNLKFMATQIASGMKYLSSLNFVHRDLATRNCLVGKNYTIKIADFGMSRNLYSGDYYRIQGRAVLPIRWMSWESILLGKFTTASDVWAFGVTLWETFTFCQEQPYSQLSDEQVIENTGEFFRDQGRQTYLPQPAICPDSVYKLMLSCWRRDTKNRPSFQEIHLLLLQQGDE

TrkA = TrkA (Homo sapiens (Human), UniProt P04629); experiment: Kinase inhibition assay (KinaseProfiler, 33P-ATP); assay type: biochemical; details: TrkA(h), read-out: The percentage of the remaining active protein
Btk = Btk (Homo sapiens (Human), UniProt Q06187); experiment: Kinase inhibition assay (KinaseProfiler, 33P-ATP); assay type: biochemical; details: for remaining activity at 10 µM: BTK(h), read-out: The percentage of the remaining active protein
Btk, sequence (Q06187 whole entry): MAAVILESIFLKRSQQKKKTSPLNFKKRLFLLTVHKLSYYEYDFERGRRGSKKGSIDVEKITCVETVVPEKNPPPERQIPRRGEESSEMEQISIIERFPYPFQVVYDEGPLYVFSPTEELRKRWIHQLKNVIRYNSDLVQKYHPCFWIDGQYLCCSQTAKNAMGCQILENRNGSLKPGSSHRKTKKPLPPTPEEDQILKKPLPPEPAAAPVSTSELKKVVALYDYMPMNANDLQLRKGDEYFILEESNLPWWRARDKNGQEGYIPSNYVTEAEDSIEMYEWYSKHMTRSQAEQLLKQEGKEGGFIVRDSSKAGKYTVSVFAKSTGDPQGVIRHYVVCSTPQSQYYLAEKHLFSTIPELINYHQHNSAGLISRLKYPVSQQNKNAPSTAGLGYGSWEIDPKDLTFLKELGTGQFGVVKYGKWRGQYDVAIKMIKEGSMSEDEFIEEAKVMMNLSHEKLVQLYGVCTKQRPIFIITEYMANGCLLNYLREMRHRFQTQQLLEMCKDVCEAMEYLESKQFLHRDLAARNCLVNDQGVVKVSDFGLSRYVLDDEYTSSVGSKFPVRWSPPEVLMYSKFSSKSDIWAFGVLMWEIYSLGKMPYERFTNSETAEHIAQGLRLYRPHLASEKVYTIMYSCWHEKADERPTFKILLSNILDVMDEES

IKKα = IKKα (Homo sapiens (Human), UniProt O15111); experiment: Kinase inhibition assay (KinaseProfiler, 33P-ATP); assay type: biochemical; details: IKKα(h), read-out: The percentage of the remaining active protein
Axl = Axl (Homo sapiens (Human), UniProt P30530); experiment: Kinase inhibition assay (KinaseProfiler, 33P-ATP); assay type: biochemical; details: Axl(h), read-out: The percentage of the remaining active protein
PDGFRα = PDGFRα (Homo sapiens (Human), UniProt P16234); experiment: Kinase inhibition assay (KinaseProfiler, 33P-ATP); assay type: biochemical; details: for remaining activity at 10 µM: PDGFRα(h), read-out: The percentage of the remaining active protein
EGFR = EGFR (Homo sapiens (Human), UniProt P00533); experiment: Kinase inhibition assay (KinaseProfiler, 33P-ATP); assay type: biochemical; details: EGFR(h), read-out: The percentage of the remaining active protein
Lyn = Lyn (Homo sapiens (Human), UniProt P07948); experiment: Kinase inhibition assay (KinaseProfiler, 33P-ATP); assay type: biochemical; details: for remaining activity at 10 µM: Lyn(h), read-out: The percentage of the remaining active protein
Lyn, sequence (P07948 whole entry): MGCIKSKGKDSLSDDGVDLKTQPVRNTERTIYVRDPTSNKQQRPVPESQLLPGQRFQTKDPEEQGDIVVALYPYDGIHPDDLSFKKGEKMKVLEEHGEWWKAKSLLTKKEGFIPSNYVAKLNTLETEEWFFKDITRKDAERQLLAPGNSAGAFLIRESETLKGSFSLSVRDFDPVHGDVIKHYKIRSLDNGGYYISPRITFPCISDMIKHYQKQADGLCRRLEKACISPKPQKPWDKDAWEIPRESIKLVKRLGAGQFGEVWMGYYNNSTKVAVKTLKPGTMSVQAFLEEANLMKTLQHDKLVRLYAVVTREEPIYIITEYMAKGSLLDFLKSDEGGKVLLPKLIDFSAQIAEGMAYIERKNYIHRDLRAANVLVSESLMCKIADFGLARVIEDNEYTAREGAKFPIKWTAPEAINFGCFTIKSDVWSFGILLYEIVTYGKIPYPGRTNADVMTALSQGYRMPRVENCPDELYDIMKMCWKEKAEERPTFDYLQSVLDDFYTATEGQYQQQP

Tie2 = Tie2 (Homo sapiens (Human), UniProt Q02763); experiment: Kinase inhibition assay (KinaseProfiler, 33P-ATP); assay type: biochemical; details: Tie2 (h), read-out: The percentage of the remaining active protein
CHK1(h) = CHK1(h) (Homo sapiens (Human), UniProt O14757); experiment: Kinase inhibition assay (KinaseProfiler, 33P-ATP); assay type: biochemical; details: read-out: The percentage of the remaining active protein
FAK(h) = FAK(h) (Homo sapiens (Human), UniProt Q05397); experiment: Kinase inhibition assay (KinaseProfiler, 33P-ATP); assay type: biochemical; details: read-out: The percentage of the remaining active protein
GSK3β(h) = GSK3β(h) (Homo sapiens (Human), UniProt P49841); experiment: Kinase inhibition assay (KinaseProfiler, 33P-ATP); assay type: biochemical; details: read-out: The percentage of the remaining active protein
Met(h) = Met(h) (Homo sapiens (Human), UniProt P08581); experiment: Kinase inhibition assay (KinaseProfiler, 33P-ATP); assay type: biochemical; details: read-out: The percentage of the remaining active protein
PAK1(h) = PAK1(h) (Homo sapiens (Human), UniProt Q13153); experiment: Kinase inhibition assay (KinaseProfiler, 33P-ATP); assay type: biochemical; details: read-out: The percentage of the remaining active protein
Pim-1(h) = Pim-1(h) (Homo sapiens (Human), UniProt P11309); experiment: Kinase inhibition assay (KinaseProfiler, 33P-ATP); assay type: biochemical; details: read-out: The percentage of the remaining active protein
Pim-1(h), sequence (P11309 whole entry): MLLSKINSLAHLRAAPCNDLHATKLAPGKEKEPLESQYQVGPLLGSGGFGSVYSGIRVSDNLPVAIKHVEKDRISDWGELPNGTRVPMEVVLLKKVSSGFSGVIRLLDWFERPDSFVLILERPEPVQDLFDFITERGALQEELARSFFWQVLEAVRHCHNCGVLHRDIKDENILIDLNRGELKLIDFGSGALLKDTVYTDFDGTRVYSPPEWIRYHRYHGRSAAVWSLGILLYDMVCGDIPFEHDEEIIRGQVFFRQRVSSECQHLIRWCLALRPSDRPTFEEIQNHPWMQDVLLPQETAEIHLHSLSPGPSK

PKBα(h) = PKBα(h) (Homo sapiens (Human), UniProt P31749); experiment: Kinase inhibition assay (KinaseProfiler, 33P-ATP); assay type: biochemical; details: read-out: The percentage of the remaining active protein
PKBβ(h) = PKBβ(h) (Homo sapiens (Human), UniProt P31751); experiment: Kinase inhibition assay (KinaseProfiler, 33P-ATP); assay type: biochemical; details: read-out: The percentage of the remaining active protein
TBK1(h) = TBK1(h) (Homo sapiens (Human), UniProt Q9UHD2); experiment: Kinase inhibition assay (KinaseProfiler, 33P-ATP); assay type: biochemical; details: read-out: The percentage of the remaining active protein
Tec(h) activated = Tec(h) activated (Homo sapiens (Human), UniProt P42680); experiment: Kinase inhibition assay (KinaseProfiler, 33P-ATP); assay type: biochemical; details: read-out: The percentage of the remaining active protein
PI3 Kinase a(h) = PI3 Kinase a(h) (Homo sapiens (Human), UniProt P42336); experiment: Kinase inhibition assay (KinaseProfiler, 33P-ATP); assay type: biochemical; details: read-out: The percentage of the remaining active protein
A549 = experiment: Cell proliferation inhibition assay (MTT); assay type: cell-based; details: Homo sapiens; A549; MTT, 72 hours; read-out: Proliferation inhibitory activity IC50
BT474 = experiment: Cell proliferation inhibition assay (MTT); assay type: cell-based; details: Homo sapiens, BT-474; BT474; MTT, 72 hours; read-out: Proliferation inhibitory activity IC50
HT29 = experiment: Cell proliferation inhibition assay (MTT); assay type: cell-based; details: Homo sapiens, HT-29; HT29; MTT, 72 hours; read-out: Proliferation inhibitory activity IC50
[1] = system: breast cancer cell line MDA-MB-231; assay type: in vivo; details: nude mice; for tumor growth inhibition / inhibitory effect compared to positive control: MDA-MB-231 subcutaneous tumor; for tumor growth inhibition: 20 mg/kg per day, oral; for inhibitory effect compared to positive control: vs paclitaxel 10 mg/kg per week tail vein, dasatinib 40 mg/kg daily oral
c-Src(1-530) = c-Src(1-530) (Homo sapiens (Human), UniProt P12931); experiment: Kinase inhibition assay (KinaseProfiler, 33P-ATP); details: for remaining activity at 10 µM: read-out: The percentage of the remaining active protein
c-Src(1-530), sequence (P12931 whole entry, looked up): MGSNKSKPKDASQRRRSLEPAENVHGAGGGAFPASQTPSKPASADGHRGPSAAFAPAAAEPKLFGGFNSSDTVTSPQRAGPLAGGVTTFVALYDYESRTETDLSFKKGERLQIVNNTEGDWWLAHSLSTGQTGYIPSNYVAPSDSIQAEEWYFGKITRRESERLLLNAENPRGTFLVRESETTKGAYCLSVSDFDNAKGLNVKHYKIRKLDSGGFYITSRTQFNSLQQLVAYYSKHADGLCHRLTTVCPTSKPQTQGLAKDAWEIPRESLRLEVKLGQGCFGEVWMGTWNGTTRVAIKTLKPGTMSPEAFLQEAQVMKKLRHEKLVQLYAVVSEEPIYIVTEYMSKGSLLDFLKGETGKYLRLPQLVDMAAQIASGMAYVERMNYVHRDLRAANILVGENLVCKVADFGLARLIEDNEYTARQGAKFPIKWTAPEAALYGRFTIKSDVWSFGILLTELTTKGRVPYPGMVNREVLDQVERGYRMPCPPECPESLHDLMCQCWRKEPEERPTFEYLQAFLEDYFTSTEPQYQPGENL

EphA2 = EphA2 (Homo sapiens (Human), UniProt P29317); experiment: Kinase inhibition assay (KinaseProfiler, 33P-ATP)
Bmx = Bmx (Homo sapiens (Human), UniProt P51813); experiment: Kinase inhibition assay (KinaseProfiler, 33P-ATP); details: for remaining activity at 10 µM: read-out: The percentage of the remaining active protein
Bmx, sequence (P51813 whole entry): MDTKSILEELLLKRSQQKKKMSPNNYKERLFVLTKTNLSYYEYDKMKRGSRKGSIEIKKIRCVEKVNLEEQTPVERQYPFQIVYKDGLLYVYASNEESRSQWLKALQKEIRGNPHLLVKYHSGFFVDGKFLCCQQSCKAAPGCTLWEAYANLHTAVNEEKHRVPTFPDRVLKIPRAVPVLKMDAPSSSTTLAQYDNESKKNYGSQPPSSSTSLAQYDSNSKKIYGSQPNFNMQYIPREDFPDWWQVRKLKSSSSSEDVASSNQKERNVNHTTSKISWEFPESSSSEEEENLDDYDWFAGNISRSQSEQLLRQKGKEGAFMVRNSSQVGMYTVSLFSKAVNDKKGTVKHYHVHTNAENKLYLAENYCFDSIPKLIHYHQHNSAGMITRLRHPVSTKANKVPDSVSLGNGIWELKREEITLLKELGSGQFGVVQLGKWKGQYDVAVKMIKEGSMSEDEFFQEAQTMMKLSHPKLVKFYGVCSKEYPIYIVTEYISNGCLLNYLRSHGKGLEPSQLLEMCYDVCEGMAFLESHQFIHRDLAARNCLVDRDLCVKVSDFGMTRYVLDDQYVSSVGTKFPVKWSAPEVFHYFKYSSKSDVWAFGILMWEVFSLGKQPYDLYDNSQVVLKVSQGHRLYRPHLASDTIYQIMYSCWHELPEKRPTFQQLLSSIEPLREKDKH

remaining activity at 10 µM (c-RAF; compound at 10 μM): 2%
IC50 (c-RAF; c-RAF, ATP at Km): 19 nM
remaining activity at 10 µM (Yes; compound at 10 μM): 0%
IC50 (Yes): < 1 nM
IC50 (EphB4; EphB4, ATP at Km): 11 nM
IC50 (DDR1): 4 nM
IC50 (DDR2): 74 nM
remaining activity at 10 µM (TrkA; compound at 10 μM): 14%
remaining activity at 10 µM (Btk; compound at 10 μM): -3%
IC50 (Btk; Btk, ATP at Km): 127 nM
remaining activity at 10 µM (IKKα; compound at 10 μM): 14%
remaining activity at 10 µM (Axl; compound at 10 μM): 15%
remaining activity at 10 µM (PDGFRα; compound at 10 μM): 3%
IC50 (PDGFRα; PDGFRα, ATP at Km): 396 nM
remaining activity at 10 µM (EGFR; compound at 10 μM): 15%
remaining activity at 10 µM (Lyn; compound at 10 μM): 0%
remaining activity at 10 µM (Tie2; compound at 10 μM): 3%
remaining activity at 10 µM (CHK1(h); compound at 10 μM): 100%
remaining activity at 10 µM (FAK(h); compound at 10 μM): 26%
remaining activity at 10 µM (GSK3β(h); compound at 10 μM): 99%
remaining activity at 10 µM (Met(h); compound at 10 μM): 102%
remaining activity at 10 µM (PAK1(h); compound at 10 μM): 36%
remaining activity at 10 µM (Pim-1(h); compound at 10 μM): 34%
remaining activity at 10 µM (PKBα(h); compound at 10 μM): 56%
remaining activity at 10 µM (PKBβ(h); compound at 10 μM): 14%
remaining activity at 10 µM (TBK1(h); compound at 10 μM): 83%
remaining activity at 10 µM (Tec(h) activated; compound at 10 μM): 13%
remaining activity at 10 µM (PI3 Kinase a(h); PI3 Kinase a(h), compound at 10 μM): 98%
IC50 (A549): 1420 nM
IC50 (BT474): > 10000 nM
IC50 (HT29): 350 nM
IC50 (c-Src(1-530); c-Src(1-530), ATP at Km): 2 nM
remaining activity at 10 µM (c-Src(1-530)): 0%
IC50 (EphA2): 18 nM
IC50 (Bmx): 18 nM
remaining activity at 10 µM (Bmx): 0%
SMILES: Cc1ccc(NC(=O)c2cccc(C(F)(F)F)c2)cc1C#Cc1nn(C2CCN(C)CC2)c2ncnc(N)c12 [Compound 31]
tumor growth inhibition [1]: significantly inhibit tumor growth
inhibitory effect compared to positive control [1]: superior inhibitory effect compared to positive control (paclitaxel and dasatinib)
toxicity / side effects (weight loss, rash, diarrhea) during administration ([1]; test dose range, daily oral): low toxicity

remaining activity at 10 µM (c-RAF; 10 μM): 24%
remaining activity at 10 µM (Yes; 10 μM): 0%
IC50 (Yes): 1 nM
remaining activity at 10 µM (EphB4; EphB4(h), 10 μM, read-out: The percentage of the remaining active protein): 1%
remaining activity at 10 µM (DDR1; DDR1(h), 10 μM, read-out: The percentage of the remaining active protein): -2%
IC50 (DDR1): 15 nM
remaining activity at 10 µM (DDR2; DDR2(h), 10 μM, read-out: The percentage of the remaining active protein): 16%
IC50 (DDR2): 65 nM
remaining activity at 10 µM (TrkA; 10 μM): 72%
remaining activity at 10 µM (Btk; 10 μM): 10%
remaining activity at 10 µM (IKKα; 10 μM): 7%
remaining activity at 10 µM (Axl; 10 μM): 56%
remaining activity at 10 µM (PDGFRα; 10 μM): 60%
remaining activity at 10 µM (EGFR; 10 μM): 11%
remaining activity at 10 µM (Lyn; 10 μM): 0%
IC50 (Lyn; Lyn, ATP at Km): 4 nM
remaining activity at 10 µM (Tie2; 10 μM): 1%
remaining activity at 10 µM (CHK1(h); 10 μM): 114%
remaining activity at 10 µM (FAK(h); 10 μM): 45%
remaining activity at 10 µM (GSK3β(h); 10 μM): 26%
remaining activity at 10 µM (Met(h); 10 μM): 133%
remaining activity at 10 µM (PAK1(h); 10 μM): 87%
remaining activity at 10 µM (Pim-1(h); 10 μM): 99%
remaining activity at 10 µM (PKBα(h); 10 μM): 101%
remaining activity at 10 µM (PKBβ(h); 10 μM): 127%
remaining activity at 10 µM (TBK1(h); 10 μM): 104%
remaining activity at 10 µM (Tec(h) activated; 10 μM): 24%
remaining activity at 10 µM (PI3 Kinase a(h); PI3 Kinase (p110a/p85a)(h), 10 μM): 79%
IC50 (A549): > 10000 nM
IC50 (BT474): > 10000 nM
IC50 (HT29): 230 nM
remaining activity at 10 µM (c-Src(1-530)): 0%
remaining activity at 10 µM (EphA2; read-out: The percentage of the remaining active protein): -3%
IC50 (Bmx; Bmx, ATP at Km): 21 nM
remaining activity at 10 µM (Bmx): -1%
SMILES: Cc1ccc(NC(=O)c2ccc(C)c(C(F)(F)F)c2)cc1C#Cc1nn([C@H]2CC[C@H](O)CC2)c2ncnc(N)c12 [Compound 93]
tumor growth inhibition [1]: significantly inhibit tumor growth
inhibitory effect compared to positive control [1]: superior inhibitory effect compared to the positive control (paclitaxel)
